# From the supplement of paper PMC10307832
# Legend:
# Experiment in all cases: relative viability (nuclei count vs DMSO), 5 days (fraction); higher = more cells survive
# [1] = compound: CCN(CCO)CCCC(C)Nc1ccnc2cc(Cl)ccc12 [Hydroxychloroquine] + CS(=O)(=O)N1CCN(Cc2cc3nc(-c4cccc5[nH]ncc45)nc(N4CCOCC4)c3s2)CC1 [Pictilisib] (partner 1 µM)
# Summary of the method: (§1)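 Five library-drug doses in √10 steps were combined with a fixed anchor-drug dose, or a single drug was given alone, by pin tool to lung cancer cell lines in 1536-well plates the day after seeding. Nuclei were stained and counted after 5 days. Relative viability is the nuclei count in treated wells over that in vehicle wells, taken as the median of duplicate plates.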
# [2] = compound: CCN(CCO)CCCC(C)Nc1ccnc2cc(Cl)ccc12 [Hydroxychloroquine] + Nc1ncn([C@H]2C[C@H](O)[C@@H](CO)O2)c(=O)n1 [Decitabine] (partner 2 µM)
# Summary of the method: as §1
# [3] = compound: CCN(CCO)CCCC(C)Nc1ccnc2cc(Cl)ccc12 [Hydroxychloroquine] + C[C@@H](Oc1cc(-c2cnn(C3CCNCC3)c2)cnc1N)c1c(Cl)ccc(F)c1Cl [Crizotinib] (partner 1 µM)
# Summary of the method: as §1
# [4] = compound: CCN(CCO)CCCC(C)Nc1ccnc2cc(Cl)ccc12 [Hydroxychloroquine] + Cc1nc(NC(=O)N2CCC[C@H]2C(N)=O)sc1-c1ccnc(C(C)(C)C(F)(F)F)c1 [Alpelisib] (partner 2 µM)
# Summary of the method: as §1
# [5] = compound: CCN(CCO)CCCC(C)Nc1ccnc2cc(Cl)ccc12 [Hydroxychloroquine] + N=C(N)NC(=N)NCCc1ccccc1 [Phenformin] (partner 250 µM)
# Summary of the method: as §1
# [6] = compound: CCN(CCO)CCCC(C)Nc1ccnc2cc(Cl)ccc12 [Hydroxychloroquine] + CS(=O)(=O)CCNCc1ccc(-c2ccc3ncnc(Nc4ccc(OCc5cccc(F)c5)c(Cl)c4)c3c2)o1 [Lapatinib] (partner 2 µM)
# Summary of the method: as §1
# [7] = compound: CCN(CCO)CCCC(C)Nc1ccnc2cc(Cl)ccc12 [Hydroxychloroquine] + O=C(c1cc(Cc2n[nH]c(=O)c3ccccc23)ccc1F)N1CCN(C(=O)C2CC2)CC1 [Olaparib] (partner 8 µM)
# Summary of the method: as §1
# [8] = compound: CCN(CCO)CCCC(C)Nc1ccnc2cc(Cl)ccc12 [Hydroxychloroquine] + CC1(C)CCC(c2ccc(Cl)cc2)=C(CN2CCN(c3ccc(C(=O)NS(=O)(=O)c4ccc(N[C@H](CCN5CCOCC5)CSc5ccccc5)c(S(=O)(=O)C(F)(F)F)c4)cc3)CC2)C1 [Navitoclax] (partner 0.5 µM)
# Summary of the method: as §1
# [9] = compound: CCN(CCO)CCCC(C)Nc1ccnc2cc(Cl)ccc12 [Hydroxychloroquine] + COc1cc2c(Oc3ccc(NC(=O)C4(C(=O)Nc5ccc(F)cc5)CC4)cc3F)ccnc2cc1OCCCN1CCOCC1 [Foretinib] (partner 0.25 µM)
# Summary of the method: as §1
# [10] = compound: CCN(CCO)CCCC(C)Nc1ccnc2cc(Cl)ccc12 [Hydroxychloroquine] + C[C@]1(O)C[C@@H](c2nc(-c3ccc4ccc(-c5ccccc5)nc4c3)c3c(N)nccn32)C1 [Linsitinib] (partner 1 µM)
# Summary of the method: as §1
# Hydroxychloroquine = compound: CCN(CCO)CCCC(C)Nc1ccnc2cc(Cl)ccc12 [Hydroxychloroquine]
# Summary of the method: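 Hoechst staining, done together with fixation and permeabilisation, marked nuclei for 4× imaging and MetaXpress counting. This followed 5 days without medium change after lung cancer cell lines, kept overnight at 37 °C in 1536-well plates, were pinned with five library-drug doses (not always all listed) spaced by √10 on vehicle-anchored plates. Viability is the ratio of treated-well to vehicle-well nuclei, expressed as a median across plates. Plates passed only at control CV below 25% with at least one doubling.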
# [11] = compound: CCN(CCO)CCCC(C)Nc1ccnc2cc(Cl)ccc12 [Hydroxychloroquine] + CC(C)C[C@H](NC(=O)[C@H](Cc1ccccc1)NC(=O)c1cnccn1)B(O)O [Bortezomib] (partner 0.002 µM)
# Summary of the method: as §1
cell line,measurement,setting,value
A549,relative viability,[1]; first compound 0.5 µM,0.622
same,relative viability,[1]; first compound 1.581 µM,0.525
same,relative viability,[1]; first compound 5 µM,0.434
same,relative viability,[1]; first compound 15.81 µM,0.529
same,relative viability,[1]; first compound 50 µM,0.565
same,relative viability,[2]; first compound 0.5 µM,0.264
same,relative viability,[2]; first compound 1.581 µM,0.208
same,relative viability,[2]; first compound 5 µM,0.267
same,relative viability,[2]; first compound 15.81 µM,0.196
same,relative viability,[2]; first compound 50 µM,0.391
same,relative viability,[3]; first compound 0.5 µM,0.832
same,relative viability,[3]; first compound 1.581 µM,0.643
same,relative viability,[3]; first compound 5 µM,0.781
same,relative viability,[3]; first compound 15.81 µM,0.735
same,relative viability,[3]; first compound 50 µM,0.805
same,relative viability,[4]; first compound 0.5 µM,0.749
same,relative viability,[4]; first compound 1.581 µM,0.577
same,relative viability,[4]; first compound 5 µM,0.761
same,relative viability,[4]; first compound 15.81 µM,0.708
same,relative viability,[4]; first compound 50 µM,0.623
same,relative viability,[5]; first compound 0.5 µM,0.154
same,relative viability,[5]; first compound 1.581 µM,0.0895
same,relative viability,[5]; first compound 5 µM,0.15
same,relative viability,[5]; first compound 15.81 µM,0.14
same,relative viability,[5]; first compound 50 µM,0.154
same,relative viability,[6]; first compound 0.5 µM,0.976
same,relative viability,[6]; first compound 1.581 µM,0.859
same,relative viability,[6]; first compound 5 µM,0.906
same,relative viability,[6]; first compound 15.81 µM,0.974
same,relative viability,[6]; first compound 50 µM,0.977
same,relative viability,[7]; first compound 0.5 µM,0.332
same,relative viability,[7]; first compound 1.581 µM,0.297
same,relative viability,[7]; first compound 5 µM,0.355
same,relative viability,[7]; first compound 15.81 µM,0.323
same,relative viability,[7]; first compound 50 µM,0.371
same,relative viability,[8]; first compound 0.5 µM,1.24
same,relative viability,[8]; first compound 1.581 µM,1.09
same,relative viability,[8]; first compound 5 µM,1.26
same,relative viability,[8]; first compound 15.81 µM,1.29
same,relative viability,[8]; first compound 50 µM,1.19
same,relative viability,[9]; first compound 0.5 µM,0.953
same,relative viability,[9]; first compound 1.581 µM,0.905
same,relative viability,[9]; first compound 5 µM,0.951
same,relative viability,[9]; first compound 15.81 µM,0.952
same,relative viability,[9]; first compound 50 µM,1.11
same,relative viability,[10]; first compound 0.5 µM,0.617
same,relative viability,[10]; first compound 1.581 µM,0.543
same,relative viability,[10]; first compound 5 µM,0.576
same,relative viability,[10]; first compound 15.81 µM,0.646
same,relative viability,[10]; first compound 50 µM,0.629
same,relative viability,Hydroxychloroquine; 0.5 µM,1.01
same,relative viability,Hydroxychloroquine; 1.581 µM,0.945
same,relative viability,Hydroxychloroquine; 5 µM,1.03
same,relative viability,Hydroxychloroquine; 15.81 µM,0.928
same,relative viability,Hydroxychloroquine; 50 µM,1.08
EBC-1,relative viability,[1]; first compound 0.5 µM,0.367
same,relative viability,[1]; first compound 1.581 µM,0.307
same,relative viability,[1]; first compound 5 µM,0.374
same,relative viability,[1]; first compound 15.81 µM,0.354
same,relative viability,[1]; first compound 50 µM,0.295
same,relative viability,[3]; first compound 0.5 µM,0.196
same,relative viability,[3]; first compound 1.581 µM,0.181
same,relative viability,[3]; first compound 5 µM,0.181
same,relative viability,[3]; first compound 15.81 µM,0.189
same,relative viability,[3]; first compound 50 µM,0.189
same,relative viability,[4]; first compound 0.5 µM,1.01
same,relative viability,[4]; first compound 1.581 µM,0.572
same,relative viability,[4]; first compound 5 µM,0.784
same,relative viability,[4]; first compound 15.81 µM,0.688
same,relative viability,[4]; first compound 50 µM,0.599
same,relative viability,[6]; first compound 0.5 µM,0.212
same,relative viability,[6]; first compound 1.581 µM,0.183
same,relative viability,[6]; first compound 5 µM,0.213
same,relative viability,[6]; first compound 15.81 µM,0.225
same,relative viability,[6]; first compound 50 µM,0.182
same,relative viability,[11]; first compound 0.5 µM,0.471
same,relative viability,[11]; first compound 1.581 µM,0.51
same,relative viability,[11]; first compound 5 µM,0.505
same,relative viability,[11]; first compound 15.81 µM,0.519
same,relative viability,[11]; first compound 50 µM,0.459
same,relative viability,[7]; first compound 0.5 µM,0.711
same,relative viability,[7]; first compound 1.581 µM,0.766
same,relative viability,[7]; first compound 5 µM,0.722
same,relative viability,[7]; first compound 15.81 µM,0.772
same,relative viability,[7]; first compound 50 µM,0.573
same,relative viability,[8]; first compound 0.5 µM,0.371
same,relative viability,[8]; first compound 1.581 µM,0.387
same,relative viability,[8]; first compound 5 µM,0.418
same,relative viability,[8]; first compound 15.81 µM,0.412
same,relative viability,[8]; first compound 50 µM,0.374
same,relative viability,[9]; first compound 0.5 µM,0.122
same,relative viability,[9]; first compound 1.581 µM,0.093
same,relative viability,[9]; first compound 5 µM,0.0998
same,relative viability,[9]; first compound 15.81 µM,0.11
same,relative viability,[9]; first compound 50 µM,0.132
same,relative viability,[10]; first compound 0.5 µM,0.953
same,relative viability,[10]; first compound 1.581 µM,0.505
same,relative viability,[10]; first compound 5 µM,0.992
same,relative viability,[10]; first compound 15.81 µM,0.769
same,relative viability,[10]; first compound 50 µM,0.915
same,relative viability,Hydroxychloroquine; 0.5 µM,1.01
same,relative viability,Hydroxychloroquine; 1.581 µM,0.897
same,relative viability,Hydroxychloroquine; 5 µM,1.05
same,relative viability,Hydroxychloroquine; 15.81 µM,0.973
same,relative viability,Hydroxychloroquine; 50 µM,1.13
